Test results: paper PMC7897442, “Mobility shift-based electrophoresis coupled with fluorescent detection enables real-time enzyme analysis of carbohydrate sulfatase activity” (Biochemical Journal, 2021)

Experiments:
[1] = Stability of labelled substrate in CE assay without enzyme; assay type: physicochemical; details: absence of enzyme, CE assay conditions
Text: 6S-N-acetyl-D-glucosamine was labelled at its reducing end with BODIPY which has a maximal emission absorbance of ∼503 nm, which can be detected by the EZ Reader II platform via LED-induced fluorescence. Non-radioactive microfluidic mobility shift carbohydrate sulfation assays were optimised in solution with a 12-sipper chip coated with CR8 reagent and performed using a PerkinElmer EZ Reader II system employing EDTA-based separation buffer and real-time kinetic evaluation of substrate desulfation. Pressure and voltage settings were adjusted manually (1.8 psi, upstream voltage: 2250 V, downstream voltage: 500 V) to afford optimal separation in the reaction mixture of the sulfated substrate and unsulfated glycan product, with a sample (sip) time of 0.2 s, and total assay times appropriate for the experiment. Individual de-sulfation assays were carried out at 28°C and were pre-assembled in a 384-well plate in a volume of 80 μl in the presence of substrate concentrations between 0.5 and 20 μM with 100 mM Bis-Tris-Propane (BTP) or Tris, dependent on the pH required, and 150 mM NaCl, 0.02% (v/v) Brij-35 and 5 mM CaCl2. The amount of de-sulfation was directly calculated in real-time using EZ Reader II software by measuring the sulfated carbohydrate : unsulfated carbohydrate ratio at each time point during the assay. […]

[2] = parameters: method as in PMID 36876452; details: pH range; cited from earlier work

Row | SMILES | amount of unsulfated substrate over the course of the reaction (stability) [1] | stability over a variety of pH values [2]
1 | CC(=O)N[C@@H]1[C@@H](O)[C@H](O)[C@@H](COS(=O)(=O)O)O[C@H]1NNC(=O)CCC1=[N+]2C(=Cc3c(C)cc(C)n3[B-]2(F)F)C=C1 [6S-GlcNAc-BODIPY] | remained constant | –
2 | Cc1cc(C)n2c1C=C1C=CC(CCC(=O)NN)=[N+]1[B-]2(F)F [BODIPY-FL hydrazide, 4,4-difluoro-5,7-dimethyl-4-bora-3a,4a-diaza-s-indacene-3-propionic acid, hydrazide] | – | 3–12
